Several values for one entry are separate records, joined by “and”; a condition that tells them apart may be missing. Identical values can stand only once.
Test system: KRAS PDC tumor spheroids (HUVEC+MSC), viability
Assay: Anticancer human tumor 254851-301-R-J1-PDC patient-derived colon carcinoma cell line growth inhibition [KRAS2]
Settings: for viability, T/C: stronger effect = lower value
Outline: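 Combination screen of spheroid viability in tumor-cell co-cultures with endothelial (HUVEC) and mesenchymal stem cell stroma. Each agent was tested in half-log dilutions, topping at clinical Cmax or at 10 microM without a known Cmax.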

[1] = curve of first compound, second compound 0.1 µM
[2] = curve of first compound, second compound 0.316 µM
[3] = curve of first compound, second compound 1 µM
[4] = curve of first compound, second compound 3.16 µM
[5] = curve of first compound, second compound 10 µM
[6] = second compound 0.1 µM, first compound 0.01 µM
[7] = second compound 0.1 µM, first compound 0.0316 µM
[8] = second compound 0.1 µM, first compound 0.1 µM
[9] = second compound 0.1 µM, first compound 0.316 µM
[10] = second compound 0.1 µM, first compound 1 µM
[11] = second compound 0.1 µM, first compound 3.16 µM
[12] = second compound 0.316 µM, first compound 0.01 µM
[13] = second compound 0.316 µM, first compound 0.0316 µM
[14] = second compound 0.316 µM, first compound 0.1 µM
[15] = second compound 0.316 µM, first compound 0.316 µM
[16] = second compound 0.316 µM, first compound 1 µM
[17] = second compound 0.316 µM, first compound 3.16 µM
[18] = second compound 1 µM, first compound 0.01 µM
[19] = second compound 1 µM, first compound 0.0316 µM
[20] = second compound 1 µM, first compound 0.1 µM
[21] = second compound 1 µM, first compound 0.316 µM
[22] = second compound 1 µM, first compound 1 µM
[23] = second compound 1 µM, first compound 3.16 µM
[24] = second compound 3.16 µM, first compound 0.01 µM
[25] = second compound 3.16 µM, first compound 0.0316 µM
[26] = second compound 3.16 µM, first compound 0.1 µM
[27] = second compound 3.16 µM, first compound 0.316 µM
[28] = second compound 3.16 µM, first compound 1 µM
[29] = second compound 3.16 µM, first compound 3.16 µM
[30] = second compound 10 µM, first compound 0.01 µM
[31] = second compound 10 µM, first compound 0.0316 µM
[32] = second compound 10 µM, first compound 0.1 µM
[33] = second compound 10 µM, first compound 0.316 µM
[34] = second compound 10 µM, first compound 1 µM
[35] = second compound 10 µM, first compound 3.16 µM
[36] = second compound 0.1 µM, first compound 0.0001 µM
[37] = second compound 0.1 µM, first compound 0.000316 µM
[38] = second compound 0.1 µM, first compound 0.001 µM
[39] = second compound 0.1 µM, first compound 0.00316 µM
[40] = second compound 0.316 µM, first compound 0.0001 µM
[41] = second compound 0.316 µM, first compound 0.000316 µM
[42] = second compound 0.316 µM, first compound 0.001 µM
[43] = second compound 0.316 µM, first compound 0.00316 µM
[44] = second compound 1 µM, first compound 0.0001 µM
[45] = second compound 1 µM, first compound 0.000316 µM
[46] = second compound 1 µM, first compound 0.001 µM
[47] = second compound 1 µM, first compound 0.00316 µM
[48] = second compound 3.16 µM, first compound 0.0001 µM
[49] = second compound 3.16 µM, first compound 0.000316 µM
[50] = second compound 3.16 µM, first compound 0.001 µM
[51] = second compound 3.16 µM, first compound 0.00316 µM
[52] = second compound 10 µM, first compound 0.0001 µM
[53] = second compound 10 µM, first compound 0.000316 µM
[54] = second compound 10 µM, first compound 0.001 µM
[55] = second compound 10 µM, first compound 0.00316 µM
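Note: spheroids exposed to compounds for seven days before readout.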
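Throughout, for viability, T/C: 100% = DMSO vehicle control luminescence of the spheroids.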

Compound: CC1COCCN1c1cc(-c2ccnn2C)c2ccnc(-c3ccn[nH]3)c2n1 (stereo unspecified) + CNCc1ccccc1-c1csc(C(C)Nc2nc(C)nc3cc(OC)c(OC)cc23)c1
- IC50 [1]: 278 nM
- IC50 [2]: 217 nM
- IC50 [3]: 252 nM
- IC50 [4]: < 10 nM
- IC50 [5]: < 10 nM
- viability, T/C [6]: 107%
- viability, T/C [7]: 103%
- viability, T/C [8]: 60.1%
- viability, T/C [9]: 50.7%
- viability, T/C [10]: 36%
- viability, T/C [11]: 20.1%
- viability, T/C [12]: 91.9%
- viability, T/C [13]: 93.9%
- viability, T/C [14]: 64.4%
- viability, T/C [15]: 42.9%
- viability, T/C [16]: 34.3%
- viability, T/C [17]: 25.9%
- viability, T/C [18]: 95.5%
- viability, T/C [19]: 93.4%
- viability, T/C [20]: 70.4%
- viability, T/C [21]: 44.9%
- viability, T/C [22]: 31%
- viability, T/C [23]: 24.1%
- viability, T/C [24]: 44.1%
- viability, T/C [25]: 35.2%
- viability, T/C [26]: 31.2%
- viability, T/C [27]: 14.6%
- viability, T/C [28]: 26.8%
- viability, T/C [29]: 17%
- viability, T/C [30]: 0.08%
- viability, T/C [31]: 0.08%
- viability, T/C [32]: 0.07%
- viability, T/C [33]: 0.99%
- viability, T/C [34]: 0.07%
- viability, T/C [35]: 0.12%

Compound: CC(=O)Nc1cccc(-n2c(=O)n(C3CC3)c(=O)c3c(Nc4ccc(I)cc4F)n(C)c(=O)c(C)c32)c1 + CNCc1ccccc1-c1csc(C(C)Nc2nc(C)nc3cc(OC)c(OC)cc23)c1
- IC50 [1]: 4.7 nM
- IC50 [2]: 5.18 nM
- IC50 [3]: 2.4 nM
- IC50 [4]: 0.639 nM
- IC50 [5]: < 0.1 nM
- viability, T/C [36]: 101%
- viability, T/C [37]: 101%
- viability, T/C [38]: 87.7%
- viability, T/C [39]: 71%
- viability, T/C [6]: 11.4%
- viability, T/C [7]: 2.93%
- viability, T/C [40]: 82.5%
- viability, T/C [41]: 99.8%
- viability, T/C [42]: 87.1%
- viability, T/C [43]: 78.2%
- viability, T/C [12]: 12.6%
- viability, T/C [13]: 2.77%
- viability, T/C [44]: 94.4%
- viability, T/C [45]: 94.9%
- viability, T/C [46]: 88.2%
- viability, T/C [47]: 37.9%
- viability, T/C [18]: 5.82%
- viability, T/C [19]: 2.26%
- viability, T/C [48]: 72.5%
- viability, T/C [49]: 74.9%
- viability, T/C [50]: 34.9%
- viability, T/C [51]: 0.57%
- viability, T/C [24]: 0.32%
- viability, T/C [25]: 0.28%
- viability, T/C [52]: 0.16%
- viability, T/C [53]: 0.15%
- viability, T/C [54]: 0.13%
- viability, T/C [55]: 0.1%
- viability, T/C [30]: 0.09%
- viability, T/C [31]: 0.15%

Compound: CC(C)NCC(C(=O)N1CCN(c2ncnc3c2C(C)CC3O)CC1)c1ccc(Cl)cc1 (stereo unspecified)
- viability, T/C (compound 0.0316 µM): 100% and 101% (3×) and 105%
- viability, T/C (compound 0.1 µM): 103% [middle of 5 runs]
- viability, T/C (compound 0.316 µM): 99.5% [middle of 5 runs]
- viability, T/C (compound 1 µM): 104% [middle of 5 runs]
- viability, T/C (compound 10 µM): 98.9% [middle of 5 runs]
- IC50 (curve of compound): > 10000 nM

Compound: CC(C)n1nc(-c2ccc3oc(N)nc3c2)c2c(N)ncnc21 + COc1cc2nc(C)nc(NC(C)c3cc(N)cc(C(F)(F)F)c3)c2cc1OC1CCOC1
- IC50 [1]: 20.7 nM
- IC50 [2]: 21.1 nM
- IC50 [3]: 20.7 nM
- IC50 [4]: 20.1 nM
- IC50 [5]: 11.6 nM
- viability, T/C [37]: 99%
- viability, T/C [38]: 118%
- viability, T/C [39]: 91.2%
- viability, T/C [6]: 76.2%
- viability, T/C [7]: 34.7%
- viability, T/C [8]: 21.4%
- viability, T/C [41]: 102%
- viability, T/C [42]: 100%
- viability, T/C [43]: 81.7%
- viability, T/C [12]: 70.2%
- viability, T/C [13]: 38.7%
- viability, T/C [14]: 24%
- viability, T/C [45]: 88.7%
- viability, T/C [46]: 98.6%
- viability, T/C [47]: 87.2%
- viability, T/C [18]: 72.2%
- viability, T/C [19]: 37%
- viability, T/C [20]: 23.6%
- viability, T/C [49]: 85.3%
- viability, T/C [50]: 98.2%
- viability, T/C [51]: 88.2%
- viability, T/C [24]: 76.7%
- viability, T/C [25]: 32.6%
- viability, T/C [26]: 22.5%
- viability, T/C [53]: 86.4%
- viability, T/C [54]: 97%
- viability, T/C [55]: 73.7%
- viability, T/C [30]: 51.9%
- viability, T/C [31]: 34.2%
- viability, T/C [32]: 21%

Compound: COC(=O)c1ccc2c(C(=Nc3ccc(N(C)C(=O)CN4CCN(C)CC4)cc3)c3ccccc3)c(O)[nH]c2c1 + C=CC(=O)N1CCN(c2nc(=O)n(-c3c(C)ccnc3C(C)C)c3nc(-c4c(O)cccc4F)c(F)cc23)C(C)C1
- IC50 [1]: > 10000 nM
- IC50 [2]: > 10000 nM
- IC50 [3]: > 10000 nM
- IC50 [4]: > 10000 nM
- IC50 [5]: > 10000 nM
- viability, T/C [7]: 91.1%
- viability, T/C [8]: 89.7%
- viability, T/C [9]: 92.3%
- viability, T/C [10]: 91.8%
- viability, T/C [11]: 83.5%
- viability, T/C (second compound 0.1 µM, first compound 10 µM): 85%
- viability, T/C [13]: 89%
- viability, T/C [14]: 99.9%
- viability, T/C [15]: 94%
- viability, T/C [16]: 89.9%
- viability, T/C [17]: 84.5%
- viability, T/C (second compound 0.316 µM, first compound 10 µM): 85.5%
- viability, T/C [19]: 90.6%
- viability, T/C [20]: 91.2%
- viability, T/C [21]: 84.9%
- viability, T/C [22]: 76.3%
- viability, T/C [23]: 77.3%
- viability, T/C (second compound 1 µM, first compound 10 µM): 83.4%
- viability, T/C [25]: 93%
- viability, T/C [26]: 101%
- viability, T/C [27]: 88.3%
- viability, T/C [28]: 88.7%
- viability, T/C [29]: 75%
- viability, T/C (second compound 3.16 µM, first compound 10 µM): 85.7%
- viability, T/C [31]: 95.6%
- viability, T/C [32]: 104%
- viability, T/C [33]: 93.5%
- viability, T/C [34]: 87.4%
- viability, T/C [35]: 77.5%
- viability, T/C (second compound 10 µM, first compound 10 µM): 75.4%

Compound: CC(=O)Nc1cccc(-n2c(=O)n(C3CC3)c(=O)c3c(Nc4ccc(I)cc4F)n(C)c(=O)c(C)c32)c1 + CC1OCC2(CCN(c3cnc(Sc4ccnc(N)c4Cl)c(N)n3)CC2)C1N
- IC50 [1]: 4.15 nM
- IC50 [2]: 3.45 nM
- IC50 [3]: 2.18 nM
- IC50 [4]: 0.975 nM
- IC50 [5]: 0.395 nM
- viability, T/C [36]: 92.1%
- viability, T/C [37]: 100%
- viability, T/C [38]: 85.7%
- viability, T/C [39]: 63%
- viability, T/C [6]: 10.8%
- viability, T/C [7]: 2.77%
- viability, T/C [40]: 98.7%
- viability, T/C [41]: 82%
- viability, T/C [42]: 87.3%
- viability, T/C [43]: 53.8%
- viability, T/C [12]: 5.84%
- viability, T/C [13]: 2.66%
- viability, T/C [44]: 80.7%
- viability, T/C [45]: 79%
- viability, T/C [46]: 75%
- viability, T/C [47]: 38%
- viability, T/C [18]: 3.61%
- viability, T/C [19]: 1.88%
- viability, T/C [48]: 66.2%
- viability, T/C [49]: 74.4%
- viability, T/C [50]: 49.4%
- viability, T/C [51]: 4.29%
- viability, T/C [24]: 2.24%
- viability, T/C [25]: 1.57%
- viability, T/C [52]: 69.1%
- viability, T/C [53]: 59.7%
- viability, T/C [54]: 9.76%
- viability, T/C [55]: 2.21%
- viability, T/C [30]: 1.43%
- viability, T/C [31]: 1.76%
